Results published in patent publication US4371537A, “Sulfur-substituted phenoxypyridines having antiviral activity” (The Dow Chemical Company, priority 1981, dated 1983).
≈ marks a conversion by molar mass, not a printed value.

How the values were obtained:
[1] = system: 20 different rhinoviruses; assay: Summary of WI-38 tissue culture testing against 20 rhinoviruses; type: cell-based; conditions: of 20 rhinoviruses
Description: The test compound was dissolved in an appropriate solvent (generally dimethyl sulfoxide) and incubated at 56° C. for at least 15 minutes and this solution was then used to prepare various test solutions having the desired concentration of test compound in preheated WI maintenance medium (49% Eagles, 49% medium 199, 2% fetal calf serum and antibiotics).
Triplicate cell culture tubes (WI-38 human embryonic lung cell culture tubes) were fed with 1 ml of medium containing the compound at specified concentrations and inoculated with 3-300 TCID50 (3-300 times the tissue culture infective dose 50, i.e., the dose required to infect 50% of the cell cultures tested). Simultaneous viral titrations were performed. The tissue cultures were supplemented with fresh medium when necessary (around 3-4 days) until viral titrations were completed.
The cell culture tubes were examined dialy for cytopathic effect. […] Comparisons were made at that time with the percentage of cell sheet destruction in tubes containing virus compound mixtures. Observed differences of 75% or more were graded "+", 74-50% as "±", and less than 50% as "-" inhibition.

[2] = Cytotoxicity in tissue culture testing (HeLa monolayers); type: cell-based; conditions: human; HeLa cells; observed at 48 and 72 hours post-treatment; read-out: Cytotoxicity: concentration of the compound found to be toxic to the cell
Description: (§1) Monolayered HeLa cells in 16 millimeter (mm) tissue culture dishes were treated with 1 ml of culture medium (Eagles medium supplemented with fetal calf serum) containing subject compound at an appropriate concentration or containing no compound at all. Culture media such as those described herein are more fully described in standard texts, as for example, Kuchler's Biochemical Methods in Cell Culture and Virology, Dowden, Hutchinson and Ross, Inc., Stroudsberg, PA (1977). Following treatment, cells were challenged with 0.05 ml of rhinovirus type 1A (RV-1A), rhinovirus type 2 (RV-2) or Coxsackie A21 virus (Cox A21) in culture medium. Some of the compounds were also tested against rhinovirus type 5 (RV-5), rhinovirus type 8 (RV-8) or rhinovirus type 64 (RV-64). Cell controls received no viruses.
^1 Cytotoxicity figures represent the concentration of the compound, […]

Cox A21 = assay: Single Oral Dose test in mice challenged IP with Cox A21; type: in vivo, Swiss male mice; conditions: >3.84 significant (95% confidence level)
Description: In addition, some of the compounds were tested in animals utilizing the following procedure, hereinafter referred to as the "Single Oral Dose" test. Swiss male mice, 8-12 grams in weight were challenged intraperitoneally (IP) with 0.2 ml of a normally lethal dose, i.e., a virus dose sufficient to cause […].80-100% mortality in infected animals within 10 days of challenge of Cox A21, in phosphate buffered saline containing 1% heat inactivated fetal calf serum. Three hours later mice were treated orally (P.O.) with 0.2 ml of compound suspended in 0.5% hydroxypropyl methylcellulose (Methocel) or with 0.2 ml of 0.5% Methocel containing no compound. […] Mice were observed daily for 7-10 days post-challenge and deaths recorded. A modified Mantel-Haenzel combined chi-square procedure was used to determine significant difference between virus control and treated groups. Chi-square values greater than 3.84 are considered significant (95% confidence level) in this test.

[3] = system: rhinovirus type 1A (RV-1A); assay: Tissue culture testing, rhinovirus type 1A in HeLa cells; type: cell-based; conditions: Enterovirus, 48 and 72 hours, NA = not active at the standard test conditions, read-out: RV-1A: lowest concentration of the compound necessary to cause a 50 percent reduction in cytopathic effect
Description: as §1
(§2) ^2 Lowest concentration of the compound (μg/ml) necessary to cause

rhinovirus type 2 (RV-2) = assay: Tissue culture testing, rhinovirus type 2 in HeLa cells; type: cell-based; conditions: Enterovirus, 48 and 72 hours, NA = not active at the standard test conditions, read-out: RV-2: lowest concentration of the compound necessary to cause a 50 percent reduction in cytopathic effect
Description: as §1, §2

[4] = system: rhinovirus type 64 (RV-64); assay: Tissue culture testing, rhinovirus type 64 in HeLa cells; type: cell-based; conditions: Enterovirus, 48 and 72 hours, NA = not active at the standard test conditions, read-out: RV-64: lowest concentration of the compound necessary to cause a 50 percent reduction in cytopathic effect
Description: as §1, §2

Coxsackie A21 virus = assay: Continuous Oral Feeding test in mice challenged IP with Coxsackie A21 virus; type: in vivo; conditions: po, 0.06 % in diet, 240 h
Description: Some of the compounds were also tested in animals utilizing the following procedure, hereainafter referred to as the "Continuous Oral Feeding" test. Coxsackie A21 virus grown on HeLa cells was administered at a concentration that produces 80 to 100% deaths in mice weighing 8 to 12 grams within 10 days, when the mice are injected (IP) with 0.2 ml of virus preparation. Mice were placed on diets containing test compound dispersed in plain commercially available rodent mash chow at a concentration of 0.06% (weight percent) on day 0. On day 1 the mice were challenged with the virus preparation, 0.2 ml/mouse, (IP). Deaths in both control and experimental groups were recorded for the 10 days and the results analyzed by a chi-square (.chi.^2) test. Chi-square values greater than 3.84 indicate the compound is active (95% confidence level).

[5] = system: Coxsackie A21 virus (Cox A21); assay: Tissue culture testing, Coxsackie A21 virus in HeLa cells; type: cell-based; conditions: 48 and 72 hours, NA = not active at the standard test conditions, read-out: Cox A21: lowest concentration of the compound necessary to cause a 50 percent reduction in cytopathic effect
Description: as §1, §2

[6] = 600 mg/kg P.O. 3 h after IP challenge

Row | Compound | number of test rhinoviruses against which the compound was graded "+" ([1]; 25 μg/ml) [test rhinoviruses] | number of test rhinoviruses against which the compound was graded "±" ([1]; 25 μg/ml) | number of test rhinoviruses against which the compound was graded "+" ([1]; 12.5 μg/ml) [test rhinoviruses] | number of test rhinoviruses against which the compound was graded "±" ([1]; 12.5 μg/ml) | MCC [2] [µg/mL] | Single Oral Dose X^2 (chi-square, deaths vs virus control) (Cox A21; [6]) | EC50 [3] [mg/L] | EC50 (rhinovirus type 2 (RV-2)) [mg/L] | EC50 [4] [mg/L] | Continuous Oral Feeding X^2 (chi-square, deaths vs control) (Coxsackie A21 virus) | EC50 [5] [mg/L] | Single Oral Dose X^2 (chi-square, deaths vs virus control) (Cox A21; 400 mg/kg P.O. 3 h after IP challenge)
1 | CCS(=O)(=O)c1ccc(Oc2ccc(Cl)c(Cl)c2)nc1 [2-(3,4-dichlorophenoxy)-5-(ethylsulfonyl)pyridine] | 14 | 3 | – | – | – | – | – | – | – | – | – | –
2 | CS(=O)(=O)c1ccc(Oc2ccc(Cl)c(Cl)c2)nc1 [2-(3,4-dichlorophenoxy)-5-(methylsulfonyl)pyridine] | 14 | 2 | – | – | – | – | – | – | – | – | – | –
3 | CCS(=O)(=O)c1ccc(Oc2ccc(Cl)cc2)nc1 [2-(4-chlorophenoxy)-5-(ethylsulfonyl)pyridine] | – | – | 13 | 4 | – | – | – | – | – | – | – | –
4 | CS(=O)(=O)c1ccc(Oc2ccc(Cl)cc2)nc1 [2-(4-chlorophenoxy)-5-(methylsulfonyl)pyridine] | – | – | 13 | 3 | – | – | – | – | – | – | – | –
5 | CS(=O)(=O)c1ccc(Oc2ccc(C(=O)c3ccccc3)cc2)nc1 [(4-((5-(methylsulfonyl)-2-pyridinyl)oxy)phenyl)phenylmethanone] | 13 | 3 | – | – | – | – | – | – | – | – | – | –
6 | CS(=O)(=O)c1ccc(Oc2ccc(SC(F)(F)F)cc2)nc1 [Example 27, 5-(methylsulfonyl)-2-(4-((trifluoromethyl)thio)phenoxy)pyridine] | – | – | – | – | ≥ 100 | 39.700 | 12.5 (≈ 35.8 µM) | < 6.25 | < 6.25 | 29.753 | < 6.25 | –
7 | CS(=O)(=O)c1ccc(Oc2cccc(Br)c2)nc1 [Example 35, 2-(3-bromophenoxy)-5-(methylsulfonyl)pyridine] | – | – | – | – | > 100 | 1.604 | < 6.25 | 12.5 (≈ 38.1 µM) | 6.25 (≈ 19 µM) | 0.197 | 50 (≈ 152 µM) | –
8 | CS(=O)(=O)c1ccc(Oc2cccc(C#N)c2)nc1 [Example 36, 3-((5-(methylsulfonyl)-2-pyridinyl)oxy)benzonitrile] | – | – | – | – | > 100 | 2.20 | 12.5 (≈ 45.6 µM) | 50 (≈ 182 µM) | 50 (≈ 182 µM) | 3.447 | 50 (≈ 182 µM) | –
9 | C[S+]([O-])c1ccc(Oc2ccc(Cl)c(Cl)c2)nc1 (centres unmarked) [Example 39, 2-(3,4-dichlorophenoxy)-5-(methylsulfinyl)pyridine] | – | – | – | – | 25 | – | 0.625 (≈ 2.07 µM) | 1.25 (≈ 4.14 µM) | 1.25 (≈ 4.14 µM) | – | 25 (≈ 82.7 µM) | –
10 | CCSc1ccc(Oc2ccc(Cl)c(Cl)c2)nc1 [Example 45, 2-(3,4-dichlorophenoxy)-5-(ethylthio)pyridine] | – | – | – | – | 12.5 | – | 2.5 (≈ 8.33 µM) | 2.5 (≈ 8.33 µM) | 5 (≈ 16.7 µM) | – | 3.12 (≈ 10.4 µM) | –
11 | CC[S+]([O-])c1ccc(Oc2ccc(Cl)c(Cl)c2)nc1 (centres unmarked) [Example 46, 2-(3,4-dichlorophenoxy)-5-(ethylsulfinyl)pyridine] | – | – | – | – | 12.5 | – | < 3.12 | < 3.12 | 5 (≈ 15.8 µM) | – | 12.5 (≈ 39.5 µM) | –
12 | CC(C)S(=O)(=O)c1ccc(Oc2ccc(Cl)c(Cl)c2)nc1 [Example 49, 2-(3,4-dichlorophenoxy)-5-((1-methylethyl)sulfonyl)pyridine] | – | – | – | – | 12.5 | – | < 0.312 | 0.625 (≈ 1.81 µM) | 0.625 (≈ 1.81 µM) | 3.851 | 0.625 (≈ 1.81 µM) | 0.004
13 | CC(C)S(=O)(=O)c1ccc(Oc2ccc(Br)cc2)nc1 [Example 50, 2-(4-bromophenoxy)-5-((1-methylethyl)sulfonyl)pyridine] | – | – | – | – | 12.5 | 10.040 | 1.25 (≈ 3.51 µM) | 1.25 (≈ 3.51 µM) | 2.5 (≈ 7.02 µM) | 1.243 | 1.25 (≈ 3.51 µM) | –
14 | CCCCCCS(=O)(=O)c1ccc(Oc2ccc(C(=O)c3ccccc3)cc2)nc1 [Example 55, (4-((5-(n-hexylsulfonyl)-2-pyridinyl)oxy)phenyl)phenylmethanone] | – | – | – | – | 12.5 | 0.190 | 3.12 (≈ 7.38 µM) | 12.5 (≈ 29.5 µM) | – | – | 3.12 (≈ 7.38 µM) | –
15 | O=S(=O)(c1ccccc1)c1ccc(Oc2ccc(Cl)c(Cl)c2)nc1 [Example 60, 2-(3,4-dichlorophenoxy)-5-(phenylsulfonyl)pyridine] | – | – | – | – | ≥ 100 | 0.839 | 5 (≈ 13.1 µM) | 10 (≈ 26.3 µM) | – | 0.970 | 10 (≈ 26.3 µM) | –
16 | O=S(=O)(c1ccccc1)c1ccc(Oc2ccc(Br)cc2)nc1 [Example 61, 2-(4-bromophenoxy)-5-(phenylsulfonyl)pyridine] | – | – | – | – | 20 | 4.401 | 10 (≈ 25.6 µM) | 10 (≈ 25.6 µM) | – | 3.328 | 5 (≈ 12.8 µM) | –
17 | O=S(=O)(Cc1ccccc1)c1ccc(Oc2ccc(Cl)c(Cl)c2)nc1 [Example 63, 2-(3,4-dichlorophenoxy)-5-((phenylmethyl)sulfonyl)pyridine] | – | – | – | – | 25 | 0.733 | 5 (≈ 12.7 µM) | 10 (≈ 25.4 µM) | – | 4.106 | 10 (≈ 25.4 µM) | –
18 | O=S(=O)(Cc1ccccc1)c1ccc(Oc2ccc(Br)cc2)nc1 [Example 64, 2-(4-bromophenoxy)-5-((phenylmethyl)sulfonyl)pyridine] | – | – | – | – | ≥ 100 | 0.483 | – | 50 (≈ 124 µM) | – | 2.985 | – | –
19 | CS(=O)(=O)c1cccc(Oc2ccc(C(=O)c3ccccc3)cc2)n1 [Example 68] | – | – | – | – | 12.5 | 0.362 | 6.25 (≈ 17.7 µM) | 6.25 (≈ 17.7 µM) | – | 0.680 | 6.25 (≈ 17.7 µM) | –
20 | CS(=O)(=O)c1cccc(Oc2ccc(Cc3ccccc3)cc2)n1 [Example 69, 2-(methylsulfonyl)-6-(4-(phenylmethyl)phenoxy)pyridine] | – | – | – | – | 5 | 3.510 | 0.625 (≈ 1.84 µM) | 2.5 (≈ 7.37 µM) | – | 0.776 | – | –
